Tests used:
Conditions in all cases: incubation time: 72 h
BT-474 [1] = test: normalised viability (% of control), CellTiter-Blue; higher = more viable cells (100 = DMSO, 0 = benzethonium chloride kill control)
Method in brief: (§1)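 Compound dissolved in 5 µl medium was pre-loaded into 384-well plates, and breast cancer cell lines in 20 µl suspension were seeded on top and incubated 72 h. After adding 2.5 µl CellTiter-Blue reagent for 2 h at 37 °C, fluorescence was read at 560/590 nm. Plates were normalised to vehicle (100) and a positive kill control (0), with Z'-factor quality control. Each value is normalised viability at a single listed concentration from the series.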

CAL-51 [2] = test: as above
Method in brief: as §1

HCC1599 [3] = test: as above
Method in brief: as §1

HDQ-P1 [4] = test: normalised viability (% of control), CellTiter-Blue; higher = more viable cells (about 100 = DMSO control)
Protocol: (§2)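 DSRT, CellTiter-Blue viability, 72 h incubation. Signal is normalised to DMSO and benzethonium chloride controls. Value is the normalised response at dose 7.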

CAL-51 [5] = test: as above
Protocol: as §2

CAL-148 [6] = test: as above
Protocol: as §2

CAL-85-1 [7] = test: as above
Protocol: as §2

DU-4475 [8] = test: as above
Protocol: as §2

MDA-MB-453 = test: as above
Protocol: as §2

MDA-MB-468 = test: drug sensitivity score (DSS), CellTox Green (DSS (AUC-based score)); higher = stronger drug effect (viability inhibition or cytotoxicity); extreme values may be limits of the assay
Method in brief: (§3)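 Breast cancer cell lines (20 µl suspension) were seeded into 384-well plates holding compound at 5 concentrations in 10-fold steps over a compound-specific 10,000-fold range, then incubated 72 h. CellTox Green fluorescence (485/520 nm) was read first, then CellTiter-Glo luminescence after 10 min at room temperature. Each plate was normalised to 0.1 % DMSO and a positive kill control. The drug sensitivity score was calculated from the area under the fitted dose-response curve.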

CAL-120 = test: as above
Method in brief: as §3

MDA-MB-231 = test: as above
Method in brief: as §3

BT-549 = test: as above
Method in brief: as §3

HDQ-P1 [9] = test: as above
Method in brief: as §3

BT-474 [10] = test: as above
Method in brief: as §3

CAL-51 [11] = test: as above
Method in brief: as §3

HCC1937 = test: as above
Method in brief: as §3

MDA-MB-436 = test: as above
Method in brief: as §3

Hs578T = test: as above
Method in brief: as §3

HCC1143 = test: as above
Method in brief: as §3

CAL-148 [12] = test: as above
Method in brief: as §3

CAL-85-1 [13] = test: as above
Method in brief: as §3

DU-4475 [14] = test: as above
Method in brief: as §3

MCF-10A = test: as above
Method in brief: as §3

HCC1599 [15] = test: as above
Method in brief: as §3

MFM-223 = test: as above
Method in brief: as §3

| Structure (SMILES) | normalised viability (BT-474 [1]; 1 nM) | normalised viability (CAL-51 [2]; 1 nM) | normalised viability (HCC1599 [3]; 1 nM) | normalised viability (HDQ-P1 [4]; 1000 nM) | normalised viability (CAL-51 [5]; 1000 nM) | normalised viability (CAL-148 [6]; 1000 nM) | normalised viability (CAL-85-1 [7]; 1000 nM) | normalised viability (DU-4475 [8]; 1000 nM) | normalised viability (MDA-MB-453; 1000 nM) | drug sensitivity score (MDA-MB-468) | drug sensitivity score (CAL-120) | drug sensitivity score (MDA-MB-231) | drug sensitivity score (BT-549) | drug sensitivity score (HDQ-P1 [9]) | drug sensitivity score (BT-474 [10]) | drug sensitivity score (CAL-51 [11]) | drug sensitivity score (HCC1937) | drug sensitivity score (MDA-MB-436) | drug sensitivity score (Hs578T) | drug sensitivity score (HCC1143) | drug sensitivity score (CAL-148 [12]) | drug sensitivity score (CAL-85-1 [13]) | drug sensitivity score (DU-4475 [14]) | drug sensitivity score (MCF-10A) | drug sensitivity score (HCC1599 [15]) | drug sensitivity score (MFM-223) | normalised viability (BT-474 [1]; 0.1 nM) | normalised viability (CAL-51 [2]; 0.1 nM) | normalised viability (HCC1599 [3]; 0.1 nM) | normalised viability (HDQ-P1 [4]; 100 nM) | normalised viability (CAL-51 [5]; 100 nM) | normalised viability (CAL-148 [6]; 100 nM) | normalised viability (CAL-85-1 [7]; 100 nM) | normalised viability (DU-4475 [8]; 100 nM) | normalised viability (MDA-MB-453; 100 nM) |
| --- | --- | --- | --- | --- | --- | --- | --- | --- | --- | --- | --- | --- | --- | --- | --- | --- | --- | --- | --- | --- | --- | --- | --- | --- | --- | --- | --- | --- | --- | --- | --- | --- | --- | --- | --- |
| Nc1ccccc1NC(=O)c1ccc(CNC(=O)OCc2cccnc2)cc1 [Entinostat] | 109% | 110% | 102% | 111% | 105% | 78.8% | 85.4% | 121% | 89.1% | 11.1 | 0 | 1.91 | 0 | 0 | 0 | 7.91 | 1.35 | 4.39 | 0 | 0 | 1.86 | 4.07 | 0 | 0 | 0 | 1.09 | – | – | – | – | – | – | – | – | – |
| CC[C@@H]1C(=O)N(C)c2cnc(Nc3ccc(C(=O)NC4CCN(C)CC4)cc3OC)nc2N1C1CCCC1 [BI 2536] | – | – | – | – | – | – | – | – | – | 0 | 1.97 | 9.92 | 0 | 0 | 0 | 16.7 | 0 | 0 | 4.87 | 0 | 0 | 10.3 | 0 | 10.3 | 0 | 6.01 | 101% | 89.5% | 83.2% | 57.7% | 12.1% | 28.3% | 59.4% | 22.3% | 29.9% |
| N#Cc1ccc(C(c2ccc(C#N)cc2)n2cncn2)cc1 [Letrozole] | 73.4% | 108% | 103% | 83.8% | 106% | 86% | 84.8% | 87.2% | 96.5% | 4.02 | 0 | 0 | 0 | 0 | 0 | 0 | 0 | 0 | 0.858 | 0 | 0 | 0 | 0 | 0 | 0 | 0 | – | – | – | – | – | – | – | – | – |
| COc1cc2c(Oc3ccc4[nH]c(C)cc4c3F)ncnc2cc1OCCCN1CCCC1 [Cediranib] | – | – | – | – | – | – | – | – | – | 0 | 0 | 0 | 0 | 0 | 0 | 0 | 0 | 0 | 0 | 0 | 0 | 1.23 | 0 | 0 | 0 | 0 | 87.8% | 91.3% | 82.5% | 95.9% | 81.6% | 108% | 95.6% | 81.3% | 92% |

— the supplement of paper PMC4862054
